Assays:
[1] = Capsule perfume leakage in heavy-duty liquid (HDL) detergent, headspace SPME GC/MS; format: physicochemical
Description: The testing of capsule leakage in liquid compositions (e.g., liquid fabric enhancer/“LFE” compositions and/or heavy-duty liquid/“HDL” detergents) is performed as follows. […] The 1 gram aliquot in the 7 ml vial is then mixed on a stirring plate for 24 h at 500 rpm, thereby ensuring that the capsules are broken by the grinding action of the stir bar against the bottom of the 7 ml vial. Optical microscopy can be used to verify that no more intact capsules remain. In case such capsules are found, the step is to repeated for an additional 24 h, or until all or almost all capsules are broken. Then, the formulation containing broken capsules is introduced into GC vials in a similar manner as for step (a). This yields total oil samples. It is to be noted that the capsule sample and the total oil sample are not analyzed on the same day, as there is a need to prepare the total oil sample after the capsule sample has been removed from storage. […] The perfume oil composition formulated herein is representative of the perfume oil composition that is present in the slurry. Then the free oil formulation is introduced into GC vials in a similar manner as for step (a). This yields reference samples, which must be used when analyzing both the capsule sample and the total oil sample. […] Two headspace vials are prepared for each sample. The sealed headspace vials are then allowed to equilibrate. […] After equilibrating, the samples are analyzed by GC/MS. […] The perfume composition is analyzed by fast GC/MS in full scan mode. Ion extraction of the specific mass for each component is obtained. The leakage is calculated as follows, separately for the capsule sample and total oil sample, where “Area” denotes the area under the chromatogram peak corresponding to the PRM of interest: Once calculated for all PRMs for both the total oil sample and the capsule sample, the corrected PRM leakage can be calculated using the following formula: Once the corrected PRM leakage has been calculated for all PRMs, the Average leakage can be found by taking the arithmetic mean of each corrected PRM leakage. […] The resulting products are stored for one week at 35° C. At the end of the storage period, samples of each product composition are analyzed for perfume leakage out of the capsule using headspace analysis. The data is reported as a percentage, determined by comparing the amount of the individual perfume raw materials found in the headspace to the amount originally provided to the capsules.

[2] = Capsule perfume leakage in liquid fabric enhancer (LFE), headspace SPME GC/MS; format: physicochemical
Description: The testing of capsule leakage in liquid compositions (e.g., liquid fabric enhancer/“LFE” compositions and/or heavy-duty liquid/“HDL” detergents) is performed as follows. […] The 1 gram aliquot in the 7 ml vial is then mixed on a stirring plate for 24 h at 500 rpm, thereby ensuring that the capsules are broken by the grinding action of the stir bar against the bottom of the 7 ml vial. Optical microscopy can be used to verify that no more intact capsules remain. In case such capsules are found, the step is to repeated for an additional 24 h, or until all or almost all capsules are broken. Then, the formulation containing broken capsules is introduced into GC vials in a similar manner as for step (a). This yields total oil samples. It is to be noted that the capsule sample and the total oil sample are not analyzed on the same day, as there is a need to prepare the total oil sample after the capsule sample has been removed from storage. […] The perfume oil composition formulated herein is representative of the perfume oil composition that is present in the slurry. Then the free oil formulation is introduced into GC vials in a similar manner as for step (a). This yields reference samples, which must be used when analyzing both the capsule sample and the total oil sample. […] Two headspace vials are prepared for each sample. The sealed headspace vials are then allowed to equilibrate. Samples reach equilibrium after 3 hours at room temperature, but can be left to sit longer without detriment or change to the results, up until 24 hours after sealing the headspace vial. After equilibrating, the samples are analyzed by GC/MS. […] The perfume composition is analyzed by fast GC/MS in full scan mode. Ion extraction of the specific mass for each component is obtained. The leakage is calculated as follows, separately for the capsule sample and total oil sample, where “Area” denotes the area under the chromatogram peak corresponding to the PRM of interest: Once calculated for all PRMs for both the total oil sample and the capsule sample, the corrected PRM leakage can be calculated using the following formula: Once the corrected PRM leakage has been calculated for all PRMs, the Average leakage can be found by taking the arithmetic mean of each corrected PRM leakage. […] The resulting products are stored for one week at 35° C. At the end of the storage period, samples of each product composition are analyzed for perfume leakage out of the capsule using headspace analysis. The data is reported as a percentage, determined by comparing the amount of the individual perfume raw materials found in the headspace to the amount originally provided to the capsules.

[3] = PRM of Perfume 1 out of Comparative Example 5-1 capsules (polyacrylate shell)
[4] = PRM of Perfume 1 out of Comparative example 5-2 capsules (per EP2500087B1)
[5] = PRM of Perfume 1 out of Comparative example 5-3 capsules (per WO2010013250A2)
[6] = PRM of Perfume 1 out of Example 5-1 capsules (silica shell)
[7] = PRM of Perfume 1 out of Comparative Example 4-1 capsules (polyacrylate shell), LFE Composition 1, 0.25 wt % perfume
[8] = PRM of Perfume 1 out of Comparative Example 6-1 capsules (no second shell component), LFE Composition 1
[9] = PRM of Perfume 1 out of Comparative Example 10-1 capsules (per EP2500087B1), LFE Composition 1
[10] = PRM of Perfume 1 out of Comparative Example 10-2 capsules (per WO2010013250A2, with IPM), LFE Composition 1
[11] = PRM of Perfume 1 out of Example 2, Sample A capsules, LFE Composition 1 (Ester Quat 1)
[12] = PRM of Perfume 1 out of Example 2, Sample A capsules, LFE Composition 2 (Ester Quat 2)
[13] = PRM of Perfume 1 out of Example 2, Sample A capsules, LFE Composition 3 (Ester Quat 3)
[14] = PRM of Perfume 1 out of Example 4-1 capsules (silica shell), LFE Composition 1, 0.25 wt % perfume
[15] = PRM of Perfume 1 out of Example 6-1 capsules (w/ second shell component), LFE Composition 1
[16] = PRM of Perfume 1 out of Example 10-1 capsules (Sample F, Perfume 1/IPM 40/60), LFE Composition 1
[17] = PRM of Perfume 1 out of Example 10-2 capsules (Sample A), LFE Composition 1
[18] = PRM of Perfume 3 out of Capsule Sample D, LFE Composition 1
[19] = PRM of Perfume 2 out of Capsule Sample C, LFE Composition 1

Compound	Leakage (as %) after 1 week at 35° C. [1, 3] [%]	Leakage (as %) after 1 week at 35° C. [1, 4] [%]	Leakage (as %) after 1 week at 35° C. [1, 5] [%]	Leakage (as %) after 1 week at 35° C. [1, 6] [%]	Leakage (as %) after 1 week at 35° C. [2, 7] [%]	Leakage (as %) after 1 week at 35° C. [2, 8] [%]	Leakage (as %) after 1 week at 35° C. [2, 9] [%]	Leakage (as %) after 1 week at 35° C. [2, 10] [%]	Leakage (as %) after 1 week at 35° C. [2, 11] [%]	Leakage (as %) after 1 week at 35° C. [2, 12] [%]	Leakage (as %) after 1 week at 35° C. [2, 13] [%]	Leakage (as %) after 1 week at 35° C. [2, 14] [%]	Leakage (as %) after 1 week at 35° C. [2, 15] [%]	Leakage (as %) after 1 week at 35° C. [2, 16] [%]	Leakage (as %) after 1 week at 35° C. [2, 17] [%]	Leakage (as %) after 1 week at 35° C. [2, 18] [%]	Leakage (as %) after 1 week at 35° C. [2, 19] [%]	further results
CC(=O)O[C@@H]1C[C@H]2CC[C@]1(C)C2(C)C (racemic) [iso-Bornyl acetate]	1	105	102	31	4	5	89	92	1.6	0.8	1.0	8	9	19	9	8		
CC=CC(=O)C1C(C)C=CCC1(C)C (centres unmarked) [1-(2,6,6-trimethyl-1-cyclohex-3-enyl)but-2-en-1-one]																5	4	
C=CCCC(=O)C1=CCCC(C)(C)C1 [1-(5,5-dimethyl-1-cyclohexenyl)pent-4-en-1-one]																2	2	
CC1=CC(C)C(C=O)CC1 (centres unmarked) [2,4-dimethylcyclohex-3-ene-1-carbaldehyde]	12	104	101	31	31	94	94	96	2.1	1.1	1.6	7	8	22	8		12	
CC(=O)C(C)=CC1C(C)=CCCC1(C)C (centres unmarked) [3-Methyl-4-(2,6,6-trimethyl-2cyclohexen-1-yl)-3-buten-2-one]																6		
CCC(=O)OC1C=CC2C3CCC(C3)C12 (centres unmarked) [3a,4,5,6,7,7a-hexahydro-1H-4,7-methanoinden-1-yl propanoate]																	4	
CC(=O)OC1CCCCC1C(C)(C)C (centres unmarked) [(2-tert-butylcyclohexyl) acetate]	1	105	101	33	4	5	91	92	2.2	1.1	1.3	10	11	20	11			
CC(=O)OC1CCC(C(C)(C)C)CC1 (centres unmarked) [(4-tert-butylcyclohexyl) acetate]	0	108	100	27	3	4	85	91	0.1	0.1	0.7	6	7	15	7			
C=CCOC(=O)CCCCC [Allyl caproate]																9		
CC(=O)/C=C/C1C(C)=CCCC1(C)C (stereo not drawn) [Alpha-ionone]																		Leakage (as %) after 1 week at 35° C. ([2]; PRM of Perfume 4 out of Comparative Example 9-1 capsules (per EP3078415A), LFE Composition 1): 58%; Leakage (as %) after 1 week at 35° C. ([2]; PRM of Perfume 4 out of Comparative Example 9-2 capsules (per EP3078415A, additional TEOS), LFE Composition 1): 69%; Leakage (as %) after 1 week at 35° C. ([2]; PRM of Perfume 4 out of Example 9-1 capsules (Sample E), LFE Composition 1): 15%
CC(C)=CCCC(C)CCO (centres unmarked) [Citronellol]																4		
c1ccc(Oc2ccccc2)cc1 [Diphenyl oxide]																	4	
